The source of these data is patent US10611750B2, “Tetrahydroquinoline compositions as bet bromodomain inhibitors” (FORMA Therapeutics, Inc., priority 2013, dated 2020).

Test [1] concerns the target T1, BRD4 Bromodomain 1 (BRD4 BD1) (Homo sapiens, UniProt O60885).
T1 construct: 44-168 and BRD4 BD2
In words: AlphaScreen binding assay, BRD4 BD1. Particulars: His-tagged BRD4 BD1 50 nM, biotinylated H4 (1-21) K5/8/12/16 tetra-acetylated peptide 50 nM, compounds listed under IC50 range headings. The method in brief: (§1)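 Compound dilution series were mixed with His-tagged BRD4 bromodomain and biotinylated tetra-acetylated H4 (1-21) peptide at pH 7.3 (BD1 and peptide at 50 nM, BD2 and peptide at 100 nM). Donor and acceptor beads were then added, and plates were equilibrated at least 1 h before reading. IC50 values were fitted with a four-parameter logistic model.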

Test [2] addresses T2, BRD4 Bromodomain 2 (BRD4 BD2) (Homo sapiens, UniProt O60885).
T2 construct: 333-460 were cloned, expressed, and purified to homogeneity
Briefly: AlphaScreen binding assay, BRD4 BD2. Particulars: His-tagged BRD4 BD2 100 nM, biotinylated H4 (1-21) K5/8/12/16 tetra-acetylated peptide 100 nM, compounds listed under IC50 range headings. The gist of the method:
as §1
In general terms: Bead proximity is the source of the signal in Alpha formats.

The test system of test [3] is acute myelocytic leukemia (AML) cell line MV4-11. Briefly: Oncology cell growth assay (3-day proliferation, CellTiter-Glo). It counts as cell-based. Particulars: Homo sapiens, MV4-11 cells, 3000 cells/well, compounds listed under IC50 range headings, read-out: MV411 IC50 (gIC50, inhibition of proliferation). The gist of the method:
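A 3-day proliferation test used MV4-11 cells seeded at 3000 per well with eight compound concentrations (10 μM top, 3-fold dilution) at 37° C in 5% CO2. CellTiter-Glo luminescence defined viable cell signal. A four-parameter logistic curve against DMSO and background wells gave the gIC50.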

Read-outs that look alike come from different tables or passages of the source.

Take `CC(=O)N1c2ccc(-c3cnn(C4CC4)c3)c(O[C@H](F)C(N)=O)c2CC[C@@H]1C` (single isomer, unassigned) [I-63]: the IC50 in test [1] is 1000 to 10000 nM; in test [2] it was 50 to 500 nM; in test [3] (72 hours) it was above 1000 nM.
The matching figures for `CC(=O)N1c2ccc(-c3cnn(C4CC4)c3)c(OC(F)C(N)=O)c2CC[C@@H]1C` (single isomer, unassigned) [I-64]: at least 10000 nM, at least 500 nM and above 1000 nM.
For `CC=Cn1c(Oc2c(-c3cnn(C4CC4)c3)ccc3c2CC[C@H](C)N3C(C)=O)nc2ccccc21` (single isomer, unassigned) [I-352], the IC50 in test [1] was in the range of 1000 to 10000 nM; in test [2] it was 50 to 500 nM; in test [3] (MV4-11, 72 h), 500 to 1000 nM.
For the molecule `CCCOc1c(-c2cnn(CCO)c2)ccc2c1CC[C@H](C)N2C(C)=O` [I-1, (S)-1-(6-(1-(2-hydroxyethyl)-1H-pyrazol-4-yl)-2-methyl-5-propoxy-3,4-dihydroquinolin-1 (2H)-yl)ethanone], the IC50 in test [1] is 100 to 1000 nM; in test [2] it was 50 to 500 nM; in test [3] (72 hours) it was below 500 nM.
Take `CC(=O)N1c2ccc(-c3cnn(C4CC4)c3)c(OCC(=O)N3CCC3)c2CC[C@@H]1C` [I-7, (S)-2-(1-acetyl-6-(1-cyclopropyl-1H-pyrazol-4-yl)-2-methyl-1,2,3,4-tetrahydroquinolin-5-yloxy)-1-(azetidin-1-yl)ethanone]: the IC50 in test [1] is 100 to 1000 nM; in test [2], 50 to 500 nM; in test [3] (MV4-11, 72 h), below 500 nM.
Consider `CC(=O)N1c2ccc(-c3cnn(C4CC4)c3)c(OCC(=O)N3CCCCC3)c2CC[C@@H]1C` [I-8, (S)-2-(1-acetyl-6-(1-cyclopropyl-1H-pyrazol-4-yl)-2-methyl-1,2,3,4-tetrahydroquinolin-5-yloxy)-1-(piperidin-1-yl)ethanone], for which the IC50 in test [1] is 100 to 1000 nM; in test [2], 50 to 500 nM; in test [3] (MV4-11, 72 h), below 500 nM.
Consider `COC(=O)N1c2ccc(-c3cnn(C4CC4)c3)c(OCCF)c2CC[C@@H]1C` [I-11, (S)-methyl 6-(1-cyclopropyl-1H-pyrazol-4-yl)-5-(2-fluoroethoxy)-2-methyl-3,4-dihydroquinoline-1(2H)-carboxylate], for which the IC50 in test [1] is 1000 to 10000 nM; in test [2], below 50 nM; in test [3] (MV4-11, 72 h) it was above 1000 nM.
Consider `COC(=O)N1c2ccc(-c3cnn(C4CC4)c3)c(OCCC(F)(F)F)c2CC[C@@H]1C` [I-13, (S)-methyl 6-(1-cyclopropyl-1H-pyrazol-4-yl)-2-methyl-5-(3,3,3-trifluoropropoxy)-3,4-dihydroquinoline-1(2H)-carboxylate], for which the IC50 in test [1] is 1000 to 10000 nM; in test [2], 50 to 500 nM; in test [3] (MV4-11, 72 h) it was 500 to 1000 nM.
The matching figures for `COC(=O)N1c2ccc(-c3cnn(C4CC4)c3)c(OC(F)(F)C(N)=O)c2CC[C@@H]1C` [I-14, (S)-methyl 5-(2-amino-1,1-difluoro-2-oxoethoxy)-6-(1-cyclopropyl-1H-pyrazol-4-yl)-2-methyl-3,4-dihydroquinoline-1(2H)-carboxylate]: 1000 to 10000 nM, 50 to 500 nM and above 1000 nM.
In the same order, the values of `COC(=O)N1c2ccc(-c3cnn(C4CC4)c3)c(OCC(C)(C)CO)c2CC[C@@H]1C` [I-17, (S)-methyl 6-(1-cyclopropyl-1H-pyrazol-4-yl)-5-(3-hydroxy-2,2-dimethylpropoxy)-2-methyl-3,4-dihydroquinoline-1(2H)-carboxylate] are 100 to 1000 nM, 50 to 500 nM and 500 to 1000 nM.
For `COC(=O)N1c2ccc(-c3cnn(C4CC4)c3)c(O[C@H](F)C(N)=O)c2CC[C@@H]1C` [I-19, (S)-methyl 5-((R)-2-amino-1-fluoro-2-oxoethoxy)-6-(1-cyclopropyl-1H-pyrazol-4-yl)-2-methyl-3,4-dihydroquinoline-1(2H)-carboxylate], the IC50 is 1000 to 10000 nM in test [1]; 50 to 500 nM in test [2]; above 1000 nM in test [3] (MV4-11, 72 h).
Take `COC(=O)N1c2ccc(-c3cnn(C4CC4)c3)c(O[C@@H](F)C(N)=O)c2CC[C@@H]1C` [I-20, (S)-methyl 5-((S)-2-amino-1-fluoro-2-oxoethoxy)-6-(1-cyclopropyl-1H-pyrazol-4-yl)-2-methyl-3,4-dihydroquinoline-1(2H)-carboxylate]: the IC50 in test [1] is at least 10000 nM; in test [2], at least 500 nM; in test [3] (MV4-11, 72 h), above 1000 nM.
As to `COC(=O)N1c2ccc(-c3cnn(C4CC4)c3)c(OCC(=O)N(C)C3CC3)c2CC[C@@H]1C` [I-22, (S)-methyl 5-(2-(cyclopropyl(methyl)amino)-2-oxoethoxy)-6-(1-cyclopropyl-1H-pyrazol-4-yl)-2-methyl-3,4-dihydroquinoline-1(2H)-carboxylate], the IC50 in test [1] is 100 to 1000 nM; in test [2], below 50 nM; in test [3] (MV4-11, 72 h) it was below 500 nM.
On to `COC(=O)N1c2ccc(-c3cnn(C4CC4)c3)c(OCC(=O)N3CCC3)c2CC[C@@H]1C` [I-23, (S)-methyl 5-(2-(azetidin-1-yl)-2-oxoethoxy)-6-(1-cyclopropyl-1H-pyrazol-4-yl)-2-methyl-3,4-dihydroquinoline-1(2H)-carboxylate], for which the IC50 in test [1] fell in the range of 100 to 1000 nM; in test [2], 50 to 500 nM; in test [3] (MV4-11, 72 h), 500 to 1000 nM.
Turning to `COC(=O)N1c2ccc(-c3cnn(C4CC4)c3)c(OCC(=O)N3CCCCC3)c2CC[C@@H]1C` [I-24, (S)-methyl 6-(1-cyclopropyl-1H-pyrazol-4-yl)-2-methyl-5-(2-oxo-2-(piperidin-1-yl)ethoxy)-3,4-dihydroquinoline-1(2H)-carboxylate], the IC50 in test [1] was 100 to 1000 nM; in test [2], below 50 nM; in test [3] (MV4-11, 72 h), above 1000 nM.
For `COC(=O)N1c2ccc(-c3cnn(C4CC4)c3)c(OCS(=O)(=O)N(C)C)c2CC[C@@H]1C` [I-29, (S)-methyl 6-(1-cyclopropyl-1H-pyrazol-4-yl)-5-((N,N-dimethylsulfamoyl)methoxy)-2-methyl-3,4-dihydroquinoline-1(2H)-carboxylate], the IC50 was 1000 to 10000 nM in test [1]; 50 to 500 nM in test [2]; above 1000 nM in test [3] (MV4-11, 72 h).
Take `COC(=O)N1c2ccc(-c3cnn(C4CC4)c3)c(OCCC3COC3)c2CC[C@@H]1C` [I-30, (S)-methyl 6-(1-cyclopropyl-1H-pyrazol-4-yl)-2-methyl-5-(2-(oxetan-3-yl)ethoxy)-3,4-dihydroquinoline-1(2H)-carboxylate]: the IC50 in test [1] was 1000 to 10000 nM; in test [2], 50 to 500 nM; in test [3] (MV4-11, 72 h), below 500 nM.
The matching figures for `COC(=O)N1c2ccc(-c3cnn(C4CC4)c3)c(OCC3CC3(F)F)c2CC[C@@H]1C` (stereo partly drawn) [I-31, (2S)-methyl 6-(1-cyclopropyl-1H-pyrazol-4-yl)-5-((2,2-difluorocyclopropyl)methoxy)-2-methyl-3,4-dihydroquinoline-1(2H)-carboxylate]: 100 to 1000 nM, below 50 nM and 500 to 1000 nM.
On to `CCCOc1c(C2=CCN(C(=O)OC(C)(C)C)CC2)ccc2c1CC[C@H](C)N2C(C)=O` [I-34, tert-butyl (S)-4-(1-acetyl-2-methyl-5-propoxy-1,2,3,4-tetrahydroquinolin-6-yl)-3,6-dihydropyridine-1(2H)-carboxylate], for which the IC50 in test [1] is at least 10000 nM; in test [2] it was 50 to 500 nM; in test [3] (MV4-11, 72 h), above 1000 nM.
The matching figures for `CC(=O)N1c2ccc(-c3cnn(C4CC4)c3)c(OCC(F)(F)F)c2CC[C@@H]1C` [I-35, (S)-1-(6-(1-cyclopropyl-1H-pyrazol-4-yl)-2-methyl-5-(2,2,2-trifluoroethoxy)-3,4-dihydroquinolin-1(2H)-yl)ethanone]: 1000 to 10000 nM, 50 to 500 nM and 500 to 1000 nM.
As for `CCCOc1c(-c2ccc3c(c2)CCN3S(C)(=O)=O)ccc2c1CC[C@H](C)N2C(C)=O` [I-500], the IC50 lay within 1000 to 10000 nM in test [1] and 50 to 500 nM in test [2].
`CCCOc1c(-c2ccc(N(C)S(C)(=O)=O)cc2)ccc2c1CC[C@H](C)N2C(C)=O` [I-502]: the IC50 fell in the range of 1000 to 10000 nM in test [1] and 50 to 500 nM in test [2].
Consider `CC(=O)N1c2ccc(-c3ccc(N(C)S(C)(=O)=O)cc3)c(OCC(=O)N(C)C)c2CC[C@@H]1C` [I-503], for which the results for the IC50 in test [1] and in test [2] were 1000 to 10000 nM and 50 to 500 nM, respectively.
For the molecule `CC(=O)N1c2ccc(-c3cnn(CCO)c3)c(Oc3nc(C)cc(C)n3)c2CC[C@@H]1C` [I-544], the IC50 in test [1] fell in the range of 1000 to 10000 nM; in test [2], 50 to 500 nM.
For the molecule `CC(=O)N1c2ccc(-c3cnn(C4COC4)c3)c(OC[C@H]3CCNC3)c2CC[C@@H]1C` [I-601], the results for the IC50 in test [1] and in test [2] were 1000 to 10000 nM and 50 to 500 nM, respectively.
`CC(=O)N1c2ccc(-c3cnn(CC(C)(C)O)c3)c(OC[C@H]3CCNC3)c2CC[C@@H]1C` [I-604]: the IC50 in test [1] is 1000 to 10000 nM; in test [2], at least 500 nM.
For `CCCOc1cccc2c1CC[C@H](C)N2C(C)=O` [I-605], the IC50 in test [1] is at least 10000 nM; in test [2], at least 500 nM.
Regarding `CC(=O)N1c2cccc(OCC(=O)N(C)C)c2CC[C@@H]1C` [I-606], the results for the IC50 in test [1] and in test [2] were at least 10000 nM and at least 500 nM, respectively.
For `CC(=O)N1c2cccc(OCC3CCCC3)c2CC[C@@H]1C` [I-607], the IC50 was at least 10000 nM in test [1] and at least 500 nM in test [2].
